Assay results from PubChem BioAssay AID330 (DTP/NCI, 2004).
Values joined by “and” are separate entries in the source; they are usually repeats but may differ in a detail not shown here. Identical values can stand only once. Toxic doses and inconclusive results are not listed.

Tested on: P388 leukemia ip, CD2F1 mice, survival T/C
Test: NCI In Vivo Anticancer Drug Screen. Data for tumor model P388 Leukemia (intraperitoneal) in CD2F1 (CDF1) mice
Conditions: endpoint: median survival time, higher = longer survival
How it was run: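 Mice carrying the transplanted tumor received test compound or vehicle. Survival was recorded in each group, and the value is the treated-group measurement divided by that of the vehicle-treated control group.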

[1] = dose: 50.0 mg/kg/injection, schedule: Q04DX003 (ip), vehicle: saline
[2] = dose: 100.0 mg/kg/injection, schedule: Q04DX003 (ip), vehicle: saline
[3] = dose: 200.0 mg/kg/injection, schedule: Q04DX003 (ip), vehicle: saline
[4] = dose: 12.5 mg/kg/injection, schedule: Q01DX009 (ip), vehicle: Klucel (hydroxypropylcellulose) (HPC)
[5] = dose: 25.0 mg/kg/injection, schedule: Q01DX009 (ip), vehicle: Klucel (hydroxypropylcellulose) (HPC)
[6] = dose: 100.0 mg/kg/injection, schedule: Q01DX009 (ip), vehicle: Klucel (hydroxypropylcellulose) (HPC)
[7] = dose: 200.0 mg/kg/injection, schedule: Q01DX009 (ip), vehicle: Klucel (hydroxypropylcellulose) (HPC)
[8] = dose: 60.0 mg/kg/injection, schedule: Q01DX005 (ip), vehicle: saline with Tween-80
[9] = dose: 120.0 mg/kg/injection, schedule: Q01DX005 (ip), vehicle: saline with Tween-80
[10] = dose: 240.0 mg/kg/injection, schedule: Q01DX005 (ip), vehicle: saline with Tween-80
[11] = dose: 50.0 mg/kg/injection, schedule: Q01DX005 (ip), vehicle: saline with Tween-80
[12] = dose: 100.0 mg/kg/injection, schedule: Q01DX005 (ip), vehicle: saline with Tween-80
[13] = dose: 200.0 mg/kg/injection, schedule: Q01DX005 (ip), vehicle: saline with Tween-80
[14] = dose: 25.0 mg/kg/injection, schedule: Q01DX005 (ip), vehicle: saline with Tween-80

For `O=C1OC(C(O)CO)C(O)=C1OC[N+]1(CCCl)CCN(CCCl)CC1` (centres undefined), the T/C (dose: 50.0 mg/kg/injection, schedule: Q01DX009 (ip), vehicle: saline) was 100 % of control and 110 % of control, the T/C (dose: 100.0 mg/kg/injection, schedule: Q01DX009 (ip), vehicle: saline) was 108 % of control and 116 % of control and the T/C (dose: 200.0 mg/kg/injection, schedule: Q01DX009 (ip), vehicle: saline) was 123 % of control. The T/C (dose: 400.0 mg/kg/injection, schedule: Q01DX009 (ip), vehicle: saline) was 157 % of control.

`CN(C)c1ccc(/C=C2/CCC2=O)cc1` was tested, and the T/C (dose: 100.0 mg/kg/injection, schedule: Q04DX003 (ip), vehicle: Klucel (hydroxypropylcellulose) (HPC)) was 96 % of control, the T/C (dose: 200.0 mg/kg/injection, schedule: Q04DX003 (ip), vehicle: Klucel (hydroxypropylcellulose) (HPC)) was 97 % of control and the T/C (dose: 400.0 mg/kg/injection, schedule: Q04DX003 (ip), vehicle: Klucel (hydroxypropylcellulose) (HPC)) was 95 % of control.

In the case of `C[N+](C)(C)CN1C(=O)c2ccccc2C1=O`, the T/C [1] is reported as 100 % of control, the T/C [2] is reported as 104 % of control and the T/C [3] is reported as 95 % of control.

In the case of `CC1CC2Oc3ccc(Cl)cc3C(=O)N2O1` (centres undefined), the T/C (dose: 7.5 mg/kg/injection, schedule: Q01DX009 (ip), vehicle: saline) is reported as 115 % of control, the T/C (dose: 15.0 mg/kg/injection, schedule: Q01DX009 (ip), vehicle: saline) is reported as 113 % of control and the T/C (dose: 30.0 mg/kg/injection, schedule: Q01DX009 (ip), vehicle: saline) is reported as 104 % of control.

With `CC(=O)CS(=O)(=O)c1ccc(NC(C)=O)cc1` the T/C (dose: 50.0 mg/kg/injection, schedule: Q01DX009 (ip), vehicle: suspension in saline) was 105 % of control, the T/C (dose: 100.0 mg/kg/injection, schedule: Q01DX009 (ip), vehicle: suspension in saline) was 94 % of control and the T/C (dose: 200.0 mg/kg/injection, schedule: Q01DX009 (ip), vehicle: suspension in saline) was 101 % of control.

For `Nc1ccc(-c2nc3ccccc3c(=O)[nH]2)cc1`, the T/C [4] was 86 % of control, the T/C [5] was 100 % of control and 108 % of control and 92 % of control and the T/C [6] was 122 % of control and 90 % of control and 94 % of control. For the same compound, the T/C [7] was 111 % of control.

For `O=C(Nc1ccc(Cl)cc1)Nc1nnc2nc(C(C(=O)c3ccc(Cl)cc3Cl)c3nc4nnc(NC(=O)Nc5ccc(Cl)cc5)n4[nH]c3=O)c(=O)[nH]n12`, the T/C [8] was 103 % of control, the T/C [9] was 101 % of control and the T/C [10] was 101 % of control.

In the case of `C[C@@H]1CC[C@]2(C)CC[C@]3(C)C(=CC[C@@H]4[C@@]5(C)CC[C@H](O)C(C)(C)[C@@H]5CC[C@]43C)[C@@H]2[C@H]1C(=O)O`, the T/C (dose: 0.5 mg/kg/injection, schedule: Q01DX005 (ip), vehicle: DMSO) is reported as 99 % of control, the T/C (dose: 1.0 mg/kg/injection, schedule: Q01DX005 (ip), vehicle: DMSO) is reported as 101 % of control and the T/C (dose: 2.0 mg/kg/injection, schedule: Q01DX005 (ip), vehicle: DMSO) is reported as 100 % of control. The T/C (dose: 4.0 mg/kg/injection, schedule: Q01DX005 (ip), vehicle: DMSO) was 100 % of control and 108 % of control and the T/C (dose: 8.0 mg/kg/injection, schedule: Q01DX005 (ip), vehicle: DMSO) was 98 % of control.

With `CC(O)C(N=C1N=CNC2=NC=NC12)C(=O)O` (centres undefined) the T/C [11] was 100 % of control, the T/C [12] was 96 % of control and the T/C [13] was 95 % of control.

`C=[CH][Sn]([CH]=C)([c]1ccccc1)[c]1ccccc1` was tested, and the T/C (dose: 50.0 mg/kg/injection, schedule: Q01DX005 (ip), vehicle: saline) was 107 % of control, the T/C (dose: 100.0 mg/kg/injection, schedule: Q01DX005 (ip), vehicle: saline) was 108 % of control and the T/C (dose: 200.0 mg/kg/injection, schedule: Q01DX005 (ip), vehicle: saline) was 104 % of control.

For `CNC(=O)Nc1[nH]c(=O)ncc1Cl`, the T/C [8] was 112 % of control and the T/C [9] was 113 % of control.

With `O=C(c1ccccc1)c1ccccc1NCC(O)COc1cccc2ccccc12` (centres undefined) the T/C [8] was 100 % of control, the T/C [9] was 92 % of control and the T/C [10] was 91 % of control.

For `COc1cc([N+](=O)[O-])ccc1C(=O)Nc1c2ccccc2nc2ccccc12`, the T/C [14] was 95 % of control, the T/C [11] was 107 % of control and the T/C [12] was 92 % of control. For the same compound, the T/C [13] was 92 % of control.

In the case of `CCCCCCCC(=O)Nc1ccccc1CC`, the T/C (dose: 100.0 mg/kg/injection, schedule: Q04DX003 (ip), vehicle: other) is reported as 100 % of control, the T/C (dose: 200.0 mg/kg/injection, schedule: Q04DX003 (ip), vehicle: other) is reported as 100 % of control and the T/C (dose: 400.0 mg/kg/injection, schedule: Q04DX003 (ip), vehicle: other) is reported as 95 % of control.

For `COc1ccc2ncc(COC(C)=O)c(C)c2c1`, the T/C [11] was 99 % of control, the T/C [12] was 99 % of control and the T/C [13] was 93 % of control.

In the case of `CCN(C(=O)CCl)C(C)(C)C(SSSC(c1ccc(Cl)cc1)C(C)(C)N(CC)C(=O)CCl)c1ccc(Cl)cc1` (centres undefined), the T/C [1] is reported as 104 % of control, the T/C [2] is reported as 113 % of control and the T/C [3] is reported as 109 % of control.

For `CC(C)=NNS(=O)(=O)c1ccc(C)cc1`, the T/C [4] was 101 % of control, the T/C [5] was 93 % of control and the T/C (dose: 50.0 mg/kg/injection, schedule: Q01DX009 (ip), vehicle: Klucel (hydroxypropylcellulose) (HPC)) was 95 % of control. The T/C [6] was 97 % of control and the T/C [7] was 88 % of control.

With `COc1c2occc2c(NC(=O)CCl)c2ccc(=O)oc12` the T/C (dose: 100.0 mg/kg/injection, schedule: Q04DX002 (ip), vehicle: saline with Tween-80) was 100 % of control and the T/C (dose: 200.0 mg/kg/injection, schedule: Q04DX002 (ip), vehicle: saline with Tween-80) was 93 % of control.

For `CCCC(CCC)NCC(O)c1cc(-c2ccc(C(F)(F)F)cc2)nc(C(F)(F)F)c1` (centres undefined), the T/C (dose: 12.5 mg/kg/injection, schedule: Q01DX009 (ip), vehicle: saline with Tween-80) was 102 % of control, the T/C (dose: 25.0 mg/kg/injection, schedule: Q01DX009 (ip), vehicle: saline with Tween-80) was 107 % of control and the T/C (dose: 50.0 mg/kg/injection, schedule: Q01DX009 (ip), vehicle: saline with Tween-80) was 100 % of control and 91 % of control.

For `CC(CNC(=O)CCOS(C)(=O)=O)NC(=O)CCOS(C)(=O)=O` (centres undefined), the T/C (dose: 12.5 mg/kg/injection, schedule: Q04DX003 (ip), vehicle: saline with Tween-80) was 100 % of control, the T/C (dose: 50.0 mg/kg/injection, schedule: Q04DX003 (ip), vehicle: saline with Tween-80) was 154 % of control and the T/C (dose: 100.0 mg/kg/injection, schedule: Q01DX009 (ip), vehicle: saline with Tween-80) was 154 % of control. For the same compound, the T/C (dose: 100.0 mg/kg/injection, schedule: Q04DX003 (ip), vehicle: saline with Tween-80) was 150 % of control, the T/C (dose: 200.0 mg/kg/injection, schedule: Q01DX009 (ip), vehicle: saline with Tween-80) was 177 % of control and the T/C (dose: 200.0 mg/kg/injection, schedule: Q04DX003 (ip), vehicle: saline with Tween-80) was 175 % of control. For the same compound, the T/C (dose: 400.0 mg/kg/injection, schedule: Q01DX009 (ip), vehicle: saline with Tween-80) was 90 % of control and the T/C (dose: 400.0 mg/kg/injection, schedule: Q04DX003 (ip), vehicle: saline with Tween-80) was 241 % of control.

With `C1=NCCCN2CCCCC12` (centres undefined) the T/C (dose: 20.0 mg/kg/injection, schedule: Q01DX009 (ip), vehicle: saline) was 98 % of control and the T/C (dose: 40.0 mg/kg/injection, schedule: Q01DX009 (ip), vehicle: saline) was 93 % of control.

`Nc1[nH]c(=O)nc2sc3ccccc3c12` was tested, and the T/C [11] was 102 % of control, the T/C [12] was 105 % of control and the T/C [13] was 102 % of control.

For `COc1ccc2nc(NC(=O)C(=O)C(C)C(=O)c3ccc(Cl)cc3)sc2c1` (centres undefined), the T/C [8] was 108 % of control, the T/C [9] was 98 % of control and the T/C [10] was 105 % of control.

For `CCCCN(CCCC)CN(CCCC)CCCC`, the T/C (dose: 12.5 mg/kg/injection, schedule: Q01DX005 (ip), vehicle: saline with Tween-80) was 102 % of control, the T/C [14] was 112 % of control and the T/C [11] was 104 % of control and 114 % of control.

With `O=C(O)Cc1cn2cc(Cl)cc(Cl)c2n1` the T/C (dose: 100.0 mg/kg/injection, schedule: Q01DX001 (ip), vehicle: Klucel (hydroxypropylcellulose) (HPC)) was 114 % of control, the T/C (dose: 200.0 mg/kg/injection, schedule: Q01DX001 (ip), vehicle: Klucel (hydroxypropylcellulose) (HPC)) was 101 % of control and the T/C (dose: 400.0 mg/kg/injection, schedule: Q01DX001 (ip), vehicle: Klucel (hydroxypropylcellulose) (HPC)) was 98 % of control.

With `CCOC(=O)C(=CCBr)C(=O)OCC` the T/C (dose: 1.56 mg/kg/injection, schedule: Q01DX009 (ip), vehicle: other) was 105 % of control, the T/C (dose: 3.13 mg/kg/injection, schedule: Q01DX009 (ip), vehicle: other) was 110 % of control and the T/C (dose: 6.25 mg/kg/injection, schedule: Q01DX009 (ip), vehicle: other) was 118 % of control. The T/C (dose: 12.5 mg/kg/injection, schedule: Q01DX009 (ip), vehicle: other) was 106 % of control and the T/C (dose: 25.0 mg/kg/injection, schedule: Q01DX009 (ip), vehicle: other) was 102 % of control.
